Here are results for six molecules from ChEMBL document CHEMBL1201862, “PubChem BioAssay data set” (2004).

Active and inactive are the calls of the source.

Experiment [1] concerns the target Aspartyl aminopeptidase (Plasmodium falciparum 3D7, UniProt Q8I2J3).
In experiment [2] the target is Procathepsin L (Homo sapiens, UniProt P07711).
In experiment [3] the target is T1, Hexokinase HKDC1 (Homo sapiens, UniProt Q2TB90).
T1 sequence (Q2TB90 whole entry): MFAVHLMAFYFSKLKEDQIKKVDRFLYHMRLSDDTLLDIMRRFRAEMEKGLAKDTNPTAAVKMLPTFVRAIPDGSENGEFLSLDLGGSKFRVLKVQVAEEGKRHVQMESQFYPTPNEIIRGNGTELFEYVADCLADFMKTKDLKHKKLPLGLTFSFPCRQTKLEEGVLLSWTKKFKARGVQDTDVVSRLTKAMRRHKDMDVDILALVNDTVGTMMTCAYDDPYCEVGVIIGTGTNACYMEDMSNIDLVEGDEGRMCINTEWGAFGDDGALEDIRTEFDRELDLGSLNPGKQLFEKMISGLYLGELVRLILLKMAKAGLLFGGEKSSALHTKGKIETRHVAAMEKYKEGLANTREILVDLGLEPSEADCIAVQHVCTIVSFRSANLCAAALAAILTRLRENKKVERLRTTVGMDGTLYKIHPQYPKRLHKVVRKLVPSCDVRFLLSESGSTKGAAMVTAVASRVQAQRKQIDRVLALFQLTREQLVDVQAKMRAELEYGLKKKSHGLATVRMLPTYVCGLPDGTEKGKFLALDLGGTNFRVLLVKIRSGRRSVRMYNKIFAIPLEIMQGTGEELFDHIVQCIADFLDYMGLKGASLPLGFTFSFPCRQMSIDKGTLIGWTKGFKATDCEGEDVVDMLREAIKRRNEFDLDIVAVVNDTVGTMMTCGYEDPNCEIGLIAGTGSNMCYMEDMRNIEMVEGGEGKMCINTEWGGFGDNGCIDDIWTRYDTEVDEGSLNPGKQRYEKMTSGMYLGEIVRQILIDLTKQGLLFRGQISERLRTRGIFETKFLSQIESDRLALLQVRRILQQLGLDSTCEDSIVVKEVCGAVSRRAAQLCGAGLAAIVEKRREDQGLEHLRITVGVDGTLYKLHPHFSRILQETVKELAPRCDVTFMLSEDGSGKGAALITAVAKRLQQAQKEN
In words: inhibition of HKDC1 glucose phosphorylation – biochemical, W721R variant, dose response (AID 504729). Type of experiment: functional.

In experiment [4] the target is Luciferin 4-monooxygenase (Photinus pyralis, UniProt P08659). In words: inhibition of purified Photinus pyralis luciferase – biochemical, luminescence, dose response (AID 1891).
A short description of experiment [5]: Luminescence Cell-Based Dose Confirmation HTS to Identify Inhibitors of Platelet Dense Granule Release. [Related pubchem assays: 1663 (Primary HTS), 1678 (Summary of Project)]. Type of experiment: functional.
Experiment [6] in a line: Luminescence-based counterscreen assay for KLF5 inhibitors: dose response cell-based high throughput screening assay to identify cytotoxic compounds using the IEC-6 intestinal epithelial cell line. [Related pubchem assays: 1700 (Primary screen.), 1834 (Confirmation screen.), 1858 (Summary AID.), 1905 (Counterscreen.)]. Format: functional.
The nature of experiment [7]: ADP-Glo luciferase signal interference – biochemical, luminescence, cherry-picked samples, set 2, artefact control for CDK5 inhibitor project, dose response (AID 504546). Type of experiment: functional, cell-based.
Experiment [8] concerns the target Cyclin-dependent kinase 5/CDK5 activator 1 (Homo sapiens, UniProt Q00535). The experiment is described as follows: blockade of human CDK5 activity – biochemical, cherry-picked samples, set 2, dose response (AID 504545).
The nature of experiment [9]: HEK-293T viability loss after treatment – luminescence, T-cell screen hits, cytotoxicity control for TCR NF-kB inhibitor project, dose response (AID 489026).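 Note: cells exposed to compound about 14 hours before the viability readout.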 Format: functional, cell-based.
Experiment [10] is described as follows: blockers of HIV-1 envelope-mediated cell-cell fusion – cherry-pick, dose response (AID 652057). Type of experiment: functional, cell-based.
Experiment [11] can be described thus: viability loss in CEM21 cells – cell-based, CellTiter-Glo luminescence, cherry-picked, cytotoxicity control for viral fusion inhibitor project, dose response (AID 652042).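 Note: potency for signal decrease meaning cytotoxicity.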 Type of experiment: functional.
Experiment [12] can be described thus: blockers of HIV-1 ZM109 envelope-driven cell-cell fusion – HeLa effector, CEM target cells, luciferase, cherry-pick, dose response (AID 652058).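 Note: luciferase signal from HIV-1 Env mediated cell-cell fusion of effector and target cells.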 Type of experiment: functional, cell-based.
Experiment [13] can be described thus: off-target signal loss in HeLa-CEM21 co-culture – HeLa F-luc CTL cells, cherry-picked, counter-screen for HIV-1 Env fusion inhibitor project, dose response (AID 652040).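 Note: potency for signal decrease marking cytotoxic or nonspecific inhibition.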 Format: functional, cell-based.
Experiment [14] can be described thus: HIV-1 AD8 envelope cell-cell fusion blockers – cherry-pick, dose response (AID 652062).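 Note: luciferase signal from cell-cell fusion driven by HIV-1 clade B AD8 Env; potency is for inhibitors of fusion seen as a drop in luminescence.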 Type of experiment: functional, cell-based.
For experiment [15], the target named is Cytochrome P450 2C9 (Homo sapiens, UniProt P11712). The note with it: Potency.
Experiment [16] deals with T2, Aminopeptidase N (Plasmodium falciparum FcB1/Columbia, UniProt O96935).
T2 sequence (O96935 whole entry): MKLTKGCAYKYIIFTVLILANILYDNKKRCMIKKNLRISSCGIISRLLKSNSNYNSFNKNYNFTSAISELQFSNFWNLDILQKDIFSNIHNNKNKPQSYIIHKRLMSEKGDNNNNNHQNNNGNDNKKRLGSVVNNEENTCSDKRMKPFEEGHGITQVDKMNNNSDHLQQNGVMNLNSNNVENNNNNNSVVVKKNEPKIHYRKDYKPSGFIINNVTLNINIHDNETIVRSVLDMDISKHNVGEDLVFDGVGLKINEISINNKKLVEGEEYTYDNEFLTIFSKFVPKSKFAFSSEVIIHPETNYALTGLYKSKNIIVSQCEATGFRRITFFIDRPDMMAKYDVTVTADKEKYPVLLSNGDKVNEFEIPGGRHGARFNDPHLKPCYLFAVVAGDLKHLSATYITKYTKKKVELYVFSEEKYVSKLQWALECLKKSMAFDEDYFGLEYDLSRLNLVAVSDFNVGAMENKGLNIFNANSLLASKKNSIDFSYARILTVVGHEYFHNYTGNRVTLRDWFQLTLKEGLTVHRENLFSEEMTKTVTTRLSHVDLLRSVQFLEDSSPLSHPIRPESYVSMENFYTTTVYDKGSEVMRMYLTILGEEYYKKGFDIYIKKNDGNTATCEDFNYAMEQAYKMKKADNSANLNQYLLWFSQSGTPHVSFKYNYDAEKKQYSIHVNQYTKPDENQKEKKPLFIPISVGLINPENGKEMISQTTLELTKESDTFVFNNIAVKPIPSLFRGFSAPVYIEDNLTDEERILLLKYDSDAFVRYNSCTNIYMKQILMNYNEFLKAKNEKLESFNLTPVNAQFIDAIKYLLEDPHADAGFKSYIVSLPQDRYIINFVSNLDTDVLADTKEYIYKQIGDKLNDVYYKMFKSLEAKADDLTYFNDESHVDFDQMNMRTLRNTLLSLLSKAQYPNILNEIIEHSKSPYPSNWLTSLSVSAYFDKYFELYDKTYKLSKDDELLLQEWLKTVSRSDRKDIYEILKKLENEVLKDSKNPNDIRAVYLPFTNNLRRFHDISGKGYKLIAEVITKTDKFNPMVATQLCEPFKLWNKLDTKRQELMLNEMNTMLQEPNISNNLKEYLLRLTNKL
In words: malaria alanyl aminopeptidase activity blockers – biochemical, fluorogenic H-Leu-NHMec substrate, 1536-well (AID 1445). Details: species or system Plasmodium falciparum 3D7, 3D7.

For experiment [17], the system named is Streptococcus sp. 'group A'. The experiment is described as follows: Streptococcus pyogenes SK(-)GAS viability under kanamycin – luminescence, BacTiterGlo, confirmation, counter-screen for streptokinase expression inhibitor project, dose response (AID 1900). Type of experiment: functional, organism-based.
In experiment [18] the target is Transitional endoplasmic reticulum ATPase (Homo sapiens, UniProt P55072, C522A). In words: C522A mutant p97 ATPase inhibitors, dose response, counter-screen for p97 inhibitor project, biochemical, luminescence (AID 1544).
The target of experiment [19] is T3, Streptokinase A (Streptococcus pyogenes serotype M1, UniProt P10520).
T3 sequence (P10520 whole entry): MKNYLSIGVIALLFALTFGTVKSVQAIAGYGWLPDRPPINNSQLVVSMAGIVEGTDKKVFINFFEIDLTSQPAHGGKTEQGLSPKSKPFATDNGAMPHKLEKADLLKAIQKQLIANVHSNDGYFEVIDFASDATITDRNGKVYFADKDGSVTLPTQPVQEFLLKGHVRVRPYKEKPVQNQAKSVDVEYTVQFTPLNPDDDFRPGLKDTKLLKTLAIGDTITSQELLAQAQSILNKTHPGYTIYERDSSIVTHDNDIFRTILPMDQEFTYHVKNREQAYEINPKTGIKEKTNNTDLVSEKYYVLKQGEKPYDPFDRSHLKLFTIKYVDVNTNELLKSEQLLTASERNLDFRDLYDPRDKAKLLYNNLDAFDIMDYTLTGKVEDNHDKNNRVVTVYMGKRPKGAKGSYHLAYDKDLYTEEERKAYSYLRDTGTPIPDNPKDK
In words: viability-normalized secreted streptokinase activity reduction – plasminogen activation absorbance, OD405, dose response (AID 1914).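 Note: secreted streptokinase activity via plasminogen activation per viability signal from cell pellet.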 Format: functional, Streptococcus pyogenes M1 GAS.

Experiment [20] addresses Transitional endoplasmic reticulum ATPase (Homo sapiens, UniProt P55072). In words: p97 ATPase inhibitors, dose response, biochemical (AID 1534).
The target of experiment [21] is Induced myeloid leukemia cell differentiation protein Mcl-1 (Homo sapiens, UniProt Q07820). Type of experiment: functional.
The test system of experiment [22] is Streptococcus. In words: GAS UMAA2166 growth inhibition – luminescence, BacTiterGlo, counter-screen for streptokinase expression inhibitor project, dose response (AID 1915).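 Note: potency for reduction of bacterial viability or growth.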 Format: functional, organism-based.
Experiment [23] deals with T4, Probable nicotinate-nucleotide adenylyltransferase (Staphylococcus aureus (strain N315), UniProt P65502). Format: functional, Staphylococcus aureus subsp. aureus N315.
Experiment [24] has as its target T4, Probable nicotinate-nucleotide adenylyltransferase. Format: functional, Staphylococcus aureus subsp. aureus N315. The note with it: read-out: IC50_Mean.
Experiment [25] concerns the target Cytochrome P450 3A4 (Homo sapiens, UniProt P08684). The note with it: Potency.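 Note: confirmatory qHTS run detecting inhibitors and substrates of CYP3A4.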
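Throughout, for IC50 Mean: confirmatory dose-response retesting of NadD inhibitor hits first found in an ultra-high-throughput screen.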

T4 sequence (P65502 whole entry): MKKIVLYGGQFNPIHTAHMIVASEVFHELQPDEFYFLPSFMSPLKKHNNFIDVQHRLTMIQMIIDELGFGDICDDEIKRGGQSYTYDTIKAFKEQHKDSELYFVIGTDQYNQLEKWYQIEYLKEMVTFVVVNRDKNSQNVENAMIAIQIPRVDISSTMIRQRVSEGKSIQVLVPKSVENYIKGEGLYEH
Chain of Cyclin-dependent kinase 5/CDK5 activator 1 (Q00535 whole entry): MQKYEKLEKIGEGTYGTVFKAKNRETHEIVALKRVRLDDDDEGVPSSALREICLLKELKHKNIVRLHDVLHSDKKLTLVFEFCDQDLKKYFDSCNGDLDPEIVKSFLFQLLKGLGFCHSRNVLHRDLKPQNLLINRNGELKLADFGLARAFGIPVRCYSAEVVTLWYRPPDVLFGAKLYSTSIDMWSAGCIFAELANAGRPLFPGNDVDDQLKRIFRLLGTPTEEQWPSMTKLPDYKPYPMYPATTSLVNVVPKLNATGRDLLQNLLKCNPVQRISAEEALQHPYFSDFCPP
Chain of Cyclin-dependent kinase 5/CDK5 activator 1 (Q15078 whole entry, further chain): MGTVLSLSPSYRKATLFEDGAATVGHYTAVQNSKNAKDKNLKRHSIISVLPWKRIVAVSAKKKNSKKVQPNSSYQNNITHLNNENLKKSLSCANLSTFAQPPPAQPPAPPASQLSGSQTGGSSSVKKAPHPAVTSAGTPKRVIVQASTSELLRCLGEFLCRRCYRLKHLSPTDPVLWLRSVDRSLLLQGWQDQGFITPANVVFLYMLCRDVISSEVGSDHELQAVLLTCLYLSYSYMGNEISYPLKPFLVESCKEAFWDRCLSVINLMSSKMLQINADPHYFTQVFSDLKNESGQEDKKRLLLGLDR
Chain of Aspartyl aminopeptidase (Q8I2J3 whole entry): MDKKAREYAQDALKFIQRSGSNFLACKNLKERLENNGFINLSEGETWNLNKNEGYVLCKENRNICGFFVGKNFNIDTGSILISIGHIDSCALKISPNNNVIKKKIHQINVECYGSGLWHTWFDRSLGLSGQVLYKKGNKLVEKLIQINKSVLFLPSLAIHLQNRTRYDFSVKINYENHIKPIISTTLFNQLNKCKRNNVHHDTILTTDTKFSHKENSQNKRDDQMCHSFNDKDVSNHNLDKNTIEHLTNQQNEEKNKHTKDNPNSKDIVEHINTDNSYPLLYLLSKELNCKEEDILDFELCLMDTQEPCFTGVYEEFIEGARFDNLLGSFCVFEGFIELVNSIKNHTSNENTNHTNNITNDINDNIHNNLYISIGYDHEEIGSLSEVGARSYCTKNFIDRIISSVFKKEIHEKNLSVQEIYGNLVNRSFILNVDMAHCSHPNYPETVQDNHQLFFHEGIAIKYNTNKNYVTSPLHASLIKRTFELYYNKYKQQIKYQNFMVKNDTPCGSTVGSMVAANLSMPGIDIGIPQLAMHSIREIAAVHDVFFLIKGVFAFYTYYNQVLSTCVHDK
Chain of Procathepsin L (P07711 whole entry): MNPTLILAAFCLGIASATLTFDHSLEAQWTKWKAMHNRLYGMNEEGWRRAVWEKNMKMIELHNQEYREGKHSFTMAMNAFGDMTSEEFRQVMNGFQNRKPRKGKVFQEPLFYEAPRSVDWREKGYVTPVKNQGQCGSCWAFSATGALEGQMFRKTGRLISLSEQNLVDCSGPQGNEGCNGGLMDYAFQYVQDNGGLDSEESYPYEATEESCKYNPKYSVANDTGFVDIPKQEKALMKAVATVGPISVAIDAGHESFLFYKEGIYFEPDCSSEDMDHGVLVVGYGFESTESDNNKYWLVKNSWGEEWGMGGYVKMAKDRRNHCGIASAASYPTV
Chain of Transitional endoplasmic reticulum ATPase (Homo sapiens, UniProt P55072, C522A) (P55072 2-806 C522A limits assumed): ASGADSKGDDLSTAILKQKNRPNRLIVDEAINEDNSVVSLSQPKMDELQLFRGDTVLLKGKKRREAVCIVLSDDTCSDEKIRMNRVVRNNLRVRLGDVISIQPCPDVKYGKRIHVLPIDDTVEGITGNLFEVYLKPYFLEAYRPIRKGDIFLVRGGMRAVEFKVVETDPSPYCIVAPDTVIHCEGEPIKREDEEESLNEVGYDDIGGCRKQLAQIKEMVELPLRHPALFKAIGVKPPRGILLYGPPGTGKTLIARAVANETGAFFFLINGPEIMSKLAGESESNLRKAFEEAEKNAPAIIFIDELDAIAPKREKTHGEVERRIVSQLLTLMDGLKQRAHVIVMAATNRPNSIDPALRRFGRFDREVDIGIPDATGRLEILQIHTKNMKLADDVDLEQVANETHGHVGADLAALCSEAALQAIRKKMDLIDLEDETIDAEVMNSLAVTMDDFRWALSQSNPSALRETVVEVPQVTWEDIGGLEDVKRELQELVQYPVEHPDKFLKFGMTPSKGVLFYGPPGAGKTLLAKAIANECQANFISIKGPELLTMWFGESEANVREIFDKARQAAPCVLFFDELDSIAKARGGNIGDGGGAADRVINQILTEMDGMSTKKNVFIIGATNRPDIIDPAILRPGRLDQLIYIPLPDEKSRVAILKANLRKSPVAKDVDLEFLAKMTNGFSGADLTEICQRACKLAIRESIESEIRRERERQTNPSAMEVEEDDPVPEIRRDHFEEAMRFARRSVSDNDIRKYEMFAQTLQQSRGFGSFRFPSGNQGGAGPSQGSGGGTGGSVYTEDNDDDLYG
Chain of Luciferin 4-monooxygenase (P08659 whole entry): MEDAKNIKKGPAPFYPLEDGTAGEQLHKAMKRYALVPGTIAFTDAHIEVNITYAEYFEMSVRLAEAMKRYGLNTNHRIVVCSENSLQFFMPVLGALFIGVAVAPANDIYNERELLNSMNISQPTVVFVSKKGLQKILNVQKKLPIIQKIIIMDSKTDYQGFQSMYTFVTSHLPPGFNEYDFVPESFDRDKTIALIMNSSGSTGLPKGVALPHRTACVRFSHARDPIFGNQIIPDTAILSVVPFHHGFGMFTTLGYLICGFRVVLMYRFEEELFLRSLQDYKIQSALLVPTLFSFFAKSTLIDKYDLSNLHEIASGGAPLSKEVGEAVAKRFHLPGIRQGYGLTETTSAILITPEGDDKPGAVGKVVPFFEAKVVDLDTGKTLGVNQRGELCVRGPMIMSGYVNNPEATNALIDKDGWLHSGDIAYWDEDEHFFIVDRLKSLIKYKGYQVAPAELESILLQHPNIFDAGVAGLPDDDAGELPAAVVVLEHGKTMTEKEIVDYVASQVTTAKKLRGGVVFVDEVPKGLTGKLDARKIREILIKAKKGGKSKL
Chain of Induced myeloid leukemia cell differentiation protein Mcl-1 (Q07820 whole entry): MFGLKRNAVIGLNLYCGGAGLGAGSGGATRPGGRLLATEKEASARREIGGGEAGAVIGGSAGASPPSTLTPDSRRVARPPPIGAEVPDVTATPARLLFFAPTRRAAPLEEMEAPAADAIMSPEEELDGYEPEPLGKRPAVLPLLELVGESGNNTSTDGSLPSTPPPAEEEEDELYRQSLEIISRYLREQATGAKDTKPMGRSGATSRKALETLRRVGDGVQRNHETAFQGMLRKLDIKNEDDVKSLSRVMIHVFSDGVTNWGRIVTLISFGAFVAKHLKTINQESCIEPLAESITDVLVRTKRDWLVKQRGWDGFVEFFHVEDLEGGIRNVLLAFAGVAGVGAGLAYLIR
Chain of Transitional endoplasmic reticulum ATPase (Homo sapiens, UniProt P55072) (P55072 whole entry): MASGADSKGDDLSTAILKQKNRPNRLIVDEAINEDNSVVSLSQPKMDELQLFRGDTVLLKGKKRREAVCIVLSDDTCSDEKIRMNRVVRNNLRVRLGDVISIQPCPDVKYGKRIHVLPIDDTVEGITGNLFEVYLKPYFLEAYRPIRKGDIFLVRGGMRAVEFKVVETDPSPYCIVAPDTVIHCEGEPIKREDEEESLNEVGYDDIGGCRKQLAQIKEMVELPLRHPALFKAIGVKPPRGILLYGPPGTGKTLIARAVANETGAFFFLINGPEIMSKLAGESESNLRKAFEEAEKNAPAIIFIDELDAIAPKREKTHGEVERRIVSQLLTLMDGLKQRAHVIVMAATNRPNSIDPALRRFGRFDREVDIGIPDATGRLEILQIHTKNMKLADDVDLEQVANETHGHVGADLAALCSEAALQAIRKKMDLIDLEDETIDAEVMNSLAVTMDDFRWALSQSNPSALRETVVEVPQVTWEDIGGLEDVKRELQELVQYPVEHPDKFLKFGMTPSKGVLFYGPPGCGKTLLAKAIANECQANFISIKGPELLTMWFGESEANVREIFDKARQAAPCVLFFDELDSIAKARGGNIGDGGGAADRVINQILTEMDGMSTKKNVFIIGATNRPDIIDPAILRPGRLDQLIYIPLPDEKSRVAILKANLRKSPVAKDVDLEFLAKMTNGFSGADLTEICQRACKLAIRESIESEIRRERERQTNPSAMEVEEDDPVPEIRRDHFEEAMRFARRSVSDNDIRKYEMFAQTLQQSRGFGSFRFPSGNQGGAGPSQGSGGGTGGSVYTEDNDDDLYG
Chain of Cytochrome P450 2C9 (P11712 whole entry): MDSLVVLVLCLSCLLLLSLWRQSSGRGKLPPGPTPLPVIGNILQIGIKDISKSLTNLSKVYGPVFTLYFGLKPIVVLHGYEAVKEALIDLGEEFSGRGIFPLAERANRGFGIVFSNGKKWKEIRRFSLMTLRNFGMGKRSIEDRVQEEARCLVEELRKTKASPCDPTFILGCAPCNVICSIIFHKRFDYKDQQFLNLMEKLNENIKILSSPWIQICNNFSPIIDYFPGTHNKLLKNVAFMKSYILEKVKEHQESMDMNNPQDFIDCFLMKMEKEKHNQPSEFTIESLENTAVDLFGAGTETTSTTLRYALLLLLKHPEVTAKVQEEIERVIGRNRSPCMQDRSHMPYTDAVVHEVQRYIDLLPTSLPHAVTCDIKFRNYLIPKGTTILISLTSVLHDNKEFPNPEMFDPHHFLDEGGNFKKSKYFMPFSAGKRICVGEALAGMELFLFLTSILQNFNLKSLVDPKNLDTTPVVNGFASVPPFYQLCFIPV

`O=C(Nc1ccc(Cl)cc1Cl)Nn1cnnc1`: the IC50 in [1] is 0.791 µM (active); in experiment [2], > 59.6 µM (not active).
On to `C=CCn1c(SCC(=O)Nc2sc3c(c2C#N)CCC(C)C3)nc2cc(C(=O)O)ccc2c1=O` (stereo not given), for which the IC50 in [3] is > 80 µM (inactive).
As for `Cc1ccc(C(=O)O/N=C(\N)c2ccccn2)c(Cl)c1`, the EC50 in [4] is 0.782 µM (active); in experiment [5], 1.2 µM (active). Moreover, the figures for the IC50 in experiment [6] and in experiment [9] were 20.1 µM (not active) and > 80 µM (inactive), respectively. Moreover, the AC50 in [7] was 92.9 µM (active); in [8] it was 21.4 µM (active); in [10], 3.44 µM (active); in experiment [11], 17.3 µM (active); in experiment [12], 21.8 µM (active); in experiment [13], 9.61 µM (active). Further, the AC50 in experiment [14] was 6.87 µM (active).
In the case of `Clc1ccc([C@@H](c2ccccc2Cl)C(Cl)Cl)cc1`, in experiment [15], the concentration at half-maximal activity (AC50) is 15.8 µM (inconclusive).
As for `O=c1cc(-c2ccc(O)c(-c3c(O)cc(O)c4c(=O)cc(-c5ccc(O)cc5)oc34)c2)oc2cc(O)cc(O)c12` [AMENTOFLAVONE], the IC50 in experiment [16] is 108 µM (active); in experiment [18], > 50 µM (not active); in experiment [20], 8.98 µM (active); in experiment [21], 1.63 µM (active); in experiment [23], 9.38 µM (active); in [24], 29.4 µM (active). Besides, the EC50 in [17] was 1.68 µM (active); in experiment [19], > 150 µM (not active); in [22], > 150 µM (not active).
`N#C/C(=C\c1ccc(O)cc1)C(=O)O` [alpha-CYANO-4-HYDROXYCINNAMIC ACID]: in experiment [25], the AC50 is 31.6 µM (inconclusive).
